Among the data in patent US10471046B2, “Method for treating, preventing, or reducing the risk of skin infection” (Melinta Subsidiary Corp., priority 2014, dated 2019) are MIC values, retold here.

The test has as its system S. aureus. The test can be described thus: Minimum inhibitory concentrations (MICs) for S. aureus of exemplary compounds (Table 2). The note with it: Staphylococcus aureus, minimum inhibitory concentrations for S. aureus; read-out: MICs. Format: cell-based. In short, it runs like this: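 Growth of S. aureus in media with or without compound, by broth microdilution in microtiter trays following NCCLS M7-A5 guidelines. Values are MICs in μg/mL.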

Values after ≈ are worked out from the molar mass of the structure shown.

As to `CC(=O)NC[C@H]1CN(c2ccc(-c3ccc([C@H](O)Cn4ccnc4)cc3)c(F)c2)C(=O)O1` [Compound 1046, N-{3-[2-Fluoro-4′-(1-(S)-hydroxy-2-imidazol-1-yl-ethyl)-biphenyl-4-yl]-2-oxo-oxazolidin-5-(S)-ylmethyl}-acetamide], the MIC was determined as 1 µg/mL (≈ 2.28 µM).

Turning to `COc1cc(CN(C)Cc2ccoc2)ccc1-c1ccc(N2C[C@H](CNC(C)=O)OC2=O)cc1F` [Compound 4034, N-(3-{2-Fluoro-4′-[(furan-3-ylmethyl-methyl-amino)-methyl]-2′-methoxy-biphenyl-4-yl}-2-oxo-oxazolidin-5-(S)-ylmethyl)-acetamide], the MIC was 32 µg/mL (≈ 66.5 µM).

On to `CC(=O)NC[C@H]1CN(c2ccc(-c3ccc(CNC(=O)c4ccncc4)cc3)c(F)c2)C(=O)O1` [Compound 4142, N-{4′-[5-(S)-(Acetylamino-methyl)-2-oxo-oxazolidin-3-yl]-2′-fluoro-biphenyl-4-ylmethyl}-isonicotinamide], for which the MIC came to 2 µg/mL (≈ 4.32 µM).

For `CC(=O)NC[C@H]1CN(c2ccc(-c3ccc(CNCc4nc5ccccc5[nH]4)cc3)c(F)c2)C(=O)O1` [Compound 4092, N-[3-(4′-{[(1H-Benzoimidazol-2-ylmethyl)-amino]-methyl}-2-fluoro-biphenyl-4-yl)-2-oxo-oxazolidin-5-(S)-ylmethyl]-acetamide], the MIC was found to be 4 µg/mL (≈ 8.2 µM).

On to `O=C1O[C@@H](Cn2ccnn2)CN1c1ccc(-c2ccc(Cn3cccn3)cc2)c(F)c1` [Compound 1085, 3-(2-Fluoro-4′-pyrazol-1-ylmethyl-biphenyl-4-yl)-5-(R)-[1,2,3]triazol-1-ylmethyl-oxazolidin-2-one], for which the MIC turned out to be 0.5 µg/mL (≈ 1.19 µM).

Turning to `CC(=O)NC[C@H]1CN(c2ccc(-c3ccc(S(=O)(=O)NCc4ccccn4)cc3)c(F)c2)C(=O)O1` [Compound 3006, N-(3-{2-Fluoro-4′-[(pyridin-2-ylmethyl)-sulfamoyl]-biphenyl-4-yl}-2-oxo-oxazolidin-5-(S)-ylmethyl)-acetamide], the MIC was determined as 16 µg/mL (≈ 32.1 µM).

Take `CC(=O)NC[C@H]1CN(c2ccc(-c3ccc(CNCCSc4ccccn4)cc3)c(F)c2)C(=O)O1` [Compound 5004, N-[3-(2-Fluoro-4′-{[2-(pyridin-2-ylsulfanyl)-ethylamino]-methyl}-biphenyl-4-yl)-2-oxo-oxazolidin-5-(S)-ylmethyl]-acetamide]: the MIC amounted to 1 µg/mL (≈ 2.02 µM).

Take `CC(=O)NC[C@H]1CN(c2ccc(-c3ccc(CNCc4ncsn4)cc3)c(F)c2)C(=O)O1` [Compound 4206, N-[3-(2-Fluoro-4′-{[([1,2,4]thiadiazol-3-ylmethyl)-amino]-methyl}-biphenyl-4-yl)-2-oxo-oxazolidin-5-(S)-ylmethyl]-acetamide]: the MIC stood at 1 µg/mL (≈ 2.2 µM).

With `CC(=O)NC[C@H]1CN(c2ccc(-c3ccc(CNC(=O)C(N)c4cccnc4)cc3)c(F)c2)C(=O)O1` (stereo partly drawn) [Compound 4294, N-{4′-[5-(S)-(Acetylamino-methyl)-2-oxo-oxazolidin-3-yl]-2′-fluoro-biphenyl-4-ylmethyl}-2-amino-2-pyridin-3-yl-acetamide], the MIC was 4 µg/mL (≈ 8.14 µM).

Turning to `CC(=O)NC[C@H]1CN(c2ccc(-c3ccc(Cn4cc(CN(C)C)nn4)cc3)c(F)c2)C(=O)O1` [Compound 1013, N-{3-[4′-(4-Dimethylaminomethyl-[1,2,3]triazol-1-ylmethyl)-2-fluoro-biphenyl-4-yl]-2-oxo-oxazolidin-5-(S)-ylmethyl}-acetamide], the MIC stood at 4 µg/mL (≈ 8.57 µM).

On to `CC(=O)NC[C@H]1CN(c2ccc(-c3ccc(CNCCC4CCCN4C)cc3)c(F)c2)C(=O)O1` (mixture of isomers) [Compound 4150, N-[3-(2-Fluoro-4′-{[2-(R/S)-(1-methyl-pyrrolidin-2-yl)-ethylamino]-methyl}-biphenyl-4-yl)-2-oxo-oxazolidin-5-(S)-ylmethyl]-acetamide], for which the MIC came to 16 µg/mL.

For `CC(=O)NC[C@H]1CN(c2ccc(-c3ccc(CNCc4c(C)nn(C)c4Cl)cc3)c(F)c2)C(=O)O1` [Compound 4126, N-[3-(4′-{[(5-Chloro-1,3-dimethyl-1H-pyrazol-4-ylmethyl)-amino]-methyl}-2-fluoro-biphenyl-4-yl)-2-oxo-oxazolidin-5-(S)-ylmethyl]-acetamide], the MIC worked out at 0.5 µg/mL (≈ 1 µM).

As for `CC(=O)NC[C@H]1CN(c2ccc(-c3ccc(CNCCc4c[nH]cn4)cc3)c(F)c2)C(=O)O1` [Compound 4227, N-[3-(2-Fluoro-4′-{[2-(1H-imidazol-4-yl)-ethylamino]-methyl}-biphenyl-4-yl)-2-oxo-oxazolidin-5-(S)-ylmethyl]-acetamide], the MIC is 4 µg/mL (≈ 8.86 µM).

For the molecule `CC(=O)NC[C@H]1CN(c2ccc(-c3ccc(Cn4cnc5c(=O)[nH]cnc54)cc3)c(F)c2)C(=O)O1` [Compound 1111, N-{3-[2-Fluoro-4′-(6-oxo-1,6-dihydro-purin-9-ylmethyl)-biphenyl-4-yl]-2-oxo-oxazolidin-5-(S)-ylmethyl}-acetamide], the MIC was 2 µg/mL (≈ 4.2 µM).

For the molecule `CC(=O)NC[C@H]1CN(c2ccc(-c3ccc(Cn4ccnc4)nc3)c(F)c2)C(=O)O1` [Compound 1077, N-{3-[3-Fluoro-4-(6-imidazol-1-ylmethyl-pyridin-3-yl)-phenyl]-2-oxo-oxazolidin-5-(S)-ylmethyl}-acetamide], the MIC was found to be 4 µg/mL (≈ 9.77 µM).

On to `CC(=O)NC[C@H]1CN(c2ccc(-c3ccc([C@H](O)CN(CCS(C)(=O)=O)Cc4ccccc4)cc3)c(F)c2)C(=O)O1` [Compound 4286, N-[3-(4′-{2-[Benzyl-(2-methanesulfonyl-ethyl)-amino]-1-(S)-hydroxy-ethyl}-2-fluoro-biphenyl-4-yl)-2-oxo-oxazolidin-5-(S)-ylmethyl]-acetamide], for which the MIC was 2 µg/mL (≈ 3.43 µM).

Take `CC(=O)NC[C@H]1CN(c2ccc(-c3ccc(CNc4nc(CN)ns4)cc3)c(F)c2)C(=O)O1` [Compound 2012, N-(3-{4′-[(3-Aminomethyl-[1,2,4]thiadiazol-5-ylamino)-methyl]-2-fluoro-biphenyl-4-yl}-2-oxo-oxazolidin-5-(S)-ylmethyl)-acetamide]: the MIC stood at 1 µg/mL (≈ 2.13 µM).

For the molecule `CC(=O)NC[C@H]1CN(c2ccc(-c3ccc(CNCc4ccc(-c5ccccc5)s4)cc3)c(F)c2)C(=O)O1` [Compound 4084, N-[3-(2-Fluoro-4′-{[(5-phenyl-thiophen-2-ylmethyl)-amino]-methyl}-biphenyl-4-yl)-2-oxo-oxazolidin-5-(S)-ylmethyl]-acetamide], the MIC worked out at 128 µg/mL (≈ 242 µM).

For the molecule `CC(=O)NC[C@H]1CN(c2ccc(-c3ccc(CNC(=O)/C=C/c4cn(C)c(=O)n(C)c4=O)cc3)c(F)c2)C(=O)O1` [Compound 4005, N-{4′-[5-(S)-(Acetylamino-methyl)-2-oxo-oxazolidin-3-yl]-2′-fluoro-biphenyl-4-ylmethyl}-3-(1,3-dimethyl-2,4-dioxo-1,2,3,4-tetrahydro-pyrimidin-5-yl)-acrylamide], the MIC worked out at 2 µg/mL (≈ 3.64 µM).

Turning to `CC(=O)NC[C@H]1CN(c2ccc(-c3ccc(CNC(=O)[C@H](N)c4ccc(F)cc4)cc3)c(F)c2)C(=O)O1` [Compound 4297, N-{4′-[5-(S)-(Acetylamino-methyl)-2-oxo-oxazolidin-3-yl]-2′-fluoro-biphenyl-4-ylmethyl}-2-(R)-amino-2-(4-fluoro-phenyl)-acetamide], the MIC stood at 2 µg/mL (≈ 3.93 µM).

On to `CC(=O)NC[C@H]1CN(c2ccc(-c3ccc(CNCCN4CCOCC4)cc3)c(F)c2)C(=O)O1` [Compound 4318, N-(3-{2-Fluoro-4′-[(2-morpholin-4-yl-ethylamino)-methyl]-biphenyl-4-yl}-2-oxo-oxazolidin-5-(S)-ylmethyl)-acetamide], for which the MIC stood at 16 µg/mL (≈ 34 µM).
